In article PMC8710297, “Identification of potent SENP1 inhibitors that inactivate SENP1/JAK2/STAT signaling pathway and overcome platinum drug resistance in ovarian cancer” (Clinical and Translational Medicine, 2021):

Tests used:
STAT3 = assay: pSTAT3 levels in IGROV1 CR cells (immunoblotting); type: cell-based; conditions: Homo sapiens, IGROV-1, 48 h, read-out: IC50 (pSTAT3 levels, Figure 3C)
Protocol: FIGURE 3 Identification of UAMMC9 from UA derivatives. (A) Synthesis of UA derivatives. Reagents and conditions: (i) Ac2O, DMAP, Pyridine, r.t.; (ii) Oxalyl chloride, CH2Cl2, r.t., overnight; (iii) amines, TEA, r.t., 0.5–4 h; (iv) NaOH a.q., MeOH/THF, r.t.; (v) amines, MeOH, reflux; (vi) K2CO3, DMF, 60°C. The detail of synthesis was included in supplemental materials. (B) UAMMC9 inhibits Sentrin‐specific protease 1 (SENP1) activity in cells. (C) IGROV1 CR cells treated with indicated UAMMC9 for 48 h. Cells were then harvested and lysates were resolved on sodium dodecyl sulphate‐polyacrylamide gel electrophoresis, followed by immunoblotting for indicated proteins. (D) Cellular thermal shift assay to examine the interaction of UAMMC9 with SENP1. IGROV1 CR cells were incubated with DMSO or UAMMC9 for 4 h before treatment as in Figure 2A. (E) In vitro thermal shift assay to analyze the interactions of UAMMC9 with purified GST‐SENP1(C603A). Stability of SENP1(C603A) was analyzed by using Western blot against SENP1 antibody. […]
Figue S2. […] (B) Quantification of SENP1 in h ib iti o n by UAMMC9 in vitro and in vivo shown in A and Figure 3B . […] SE N P 1 stability wa s analyzed by using We s t e r n blot aga inst SE NP 1 antibody.
(D) Quantification of no n‐denatured SENP1 frac ti on sh own in C. (E) Quantification of th e levels of pSTAT3 as shown in Fi g u e 3C. […]

IGROV1 CR xenograft = IGROV1 CR xenograft tumor growth; type: in vivo; conditions: nude mice, i.p., cisplatin 8 mg/kg/2 days + UA 10 mg/kg/2 days or UAMMC9 2 mg/kg/2 days, compared to single agents
Protocol: Importantly, the treatments had minor toxicity (Figures S3B–D).
Cell viability was measured by SRB assay. […] Data were represented as mean ± SD (n = 3). (B) Colony formation assay in cells treated as indicated. […] (D) Growth curves of xenograft tumors are shown in (C). Data are represented as means ± SEM, n = 6 mice/group. **p < 0.01. […] (F) IGROV1 CR xenograft tumor growth curve by indicated treatments. Data are represented as means ± SD, n = 6 tumors/group. **p < 0.01. (G) Immunohistochemistry (IHC) staining against pSTAT3 antibodies of tumor samples from four groups of mice (magnification, 200x) (Upper). […]
ac etoni tri le (solvent A) and 0.02% phosphoric ac id in 10% acetonitrile in wate r (solvent B) at a constant solvent flow rate of 1.0 mL/min.
9. Molecular docking and dynamics simulation
Docking and scoring were performed by using Schrödinger software pa c ka ge. Lig Prep wa s incorp orated to refin e UA (ligand). Ionization state s within pH=7.0±2.0 were selected fo r docking. SENP1 crystal structu re was downloaded from protein datab ank (PDB ID: 2IY0, http :// ww w.rcsb.org /). […] The protein wa s added hyd ro g e n atom s and charges, removed wate rs by Protein Preparation Wi zard module. […] The extended sampling method wa s selected fo r confor mationa l search, and the resi du es in the ra n ge of ligand 5 Å we re further optimized. […]
6 tumors per group were assessed. […]

IGROV1 CR cells = assay: Drug synergy screening: SRB proliferation assay with 2 μM cisplatin; type: cell-based
Protocol: (A) Collection of Momordin Ic (Mc) natural compound analogues. […] Cell proliferation was determined by the sulforhodamine B (SRB) assay. […] IGROV1 CR cells were incubated with Mc at indicated concentrations for 48 h and then harvested for Western blot for indicated proteins. […] IGROV1 CR cells were incubated with UA and then treated as in C. […] Intensity of SUMOylated JAK2 was measured by Quantity One software. […] Recombinant His‐JAK2 was SUMOylated by in vitro SUMOylation assay, and then SUMOylated JAK2 proteins were incubated with or without recombinant GST‐SENP1 together with Mc for 3 h. […] In vitro assay was performed as in (F). […]

Row | SMILES | IC50 (STAT3) [µM] | reduction of tumor growth in combination with cisplatin (IGROV1 CR xenograft) | IC50 of UA derivatives to inhibit resistant cells together with cisplatin (in words) (IGROV1 CR cells)
1 | C[C@H]1[C@H](C)CC[C@]2(C(=O)NCC(=O)N(C)CCO)CC[C@]3(C)C(=CC[C@@H]4[C@@]5(C)CC[C@H](O)C(C)(C)[C@@H]5CC[C@]43C)[C@H]12 [UAMMC9] | 0.388 | remarkable synergy | lower IC50
2 | C[C@H]1[C@H](C)CC[C@]2(C(=O)O)CC[C@]3(C)C(=CC[C@@H]4[C@@]5(C)CC[C@H](O)C(C)(C)[C@@H]5CC[C@]43C)[C@H]12 [UA, ursolic acid, reference compound] | – | remarkable synergy | –
